Data reported in patent US20050009772A1, “Methods and compositions for the treatment of glaucoma and other retinal diseases” (The Regents of the University of California, priority 2003, published 2005).
Entries after “also recorded” stand apart in the source; their conditions may differ.

Legend:
[1] = tested on: HSP72; assay: Quantitative immunohistochemical analysis of HSP72 in the RGCL after 1 week of IOP elevation (Experiment 3); type: in vivo, rat; conditions: quercetin = co-administered with GGA
Procedure: TdT-mediated biotin-dUTP nick end labeling (TUNEL) and immunohistochemical analysis for HSP72 and HSC70 were performed.
(§1) Animals were deeply anesthetized with intramuscular injections of 0.8 ml/kg of a cocktail of 5 ml ketamine (100 mg/ml), 2.5 ml xylazine (20 mg/ml), 1.0 ml acepromazine (10 mg/ml), and 1.5 ml normal saline. Then they were transcardially perfused with 4% paraformaldehyde in 0.1 M phosphate buffer. The enucleated eyeballs were immersed in fixative for 1 hour, bisected and post-fixed overnight. The eyes were embedded in paraffin and sectioned at a four-μm thickness along the vertical meridian through the optic nerve head. After deparaffinization and hydration, a species-specific Vectastain ABC kit (Vector Laboratories, Inc., Burlingame, Calif.) was chosen to match the species of primary antibody and the manufacturer's procedures were followed. The tissue sections were incubated with blocking serum solution in PBS for 1 hour. This was followed by incubation with primary antibody at 4° C overnight. The antibodies were mouse monoclonal antibody against HSP72 (1:500; StressGen Biotechnologies Corp., Victoria, British Columbia, Canada), goat polyclonal antibody against HSP72 (1:1000; Santa Cruz Biotechnology, Inc., Santa Cruz, Calif.) or rat monoclonal antibody against HSC70 (1:200; StressGen). Antigen-antibody complexes were detected by an avidin-biotin-peroxidase technique (Vectastain ABC Kit; Vector Laboratories). Diaminobenzidine (DAB) was used to produce a brown color in the target tissue and the slides were permanently mounted. As a negative control, alternate retinal section was incubated with blocking solution by replacing the primary antibody or with anti-rabbit secondary antibody by replacing the original secondary antibody.
Immunohistochemical staining was analyzed quantitatively with a computer-assisted image processing unit (Image-Pro Plus software, Media Cybernetics, Silver Spring, Md.) and the “count-measure” function. Images of immuno-stained sections were captured with a digital camera (Cool snap, RS Photometric, Tucson, Ariz.) attached to the microscope (Axio plan, Carl Zeiss, Oberkochen, Germany) at 630× magnification under oil immersion. The system was calibrated according to the supplier's manual before the analysis. For each digital image, all individual cells in the RGCL were marked by a masked examiner and the optical density of each cell was measured. The relative intensities of cells in the RGCL were measured and averaged (±SEM) to yield a single value representing one retina.

[2] = tested on: HSP72; assay: Immunohistochemical staining for HSP72 on retinal sections after GGA administration (Experiment 1); type: in vivo, rat
Procedure: Three experiments are summarized here, and details are provided in the subsequent sections. […] For Western blotting, twelve rats were equally divided into 6 groups. […] Enriched RGC fraction was harvested from 2 retinas of each group and used for Western blot analysis. The same experiment for isolation of RGCs and Western blotting was repeated with the other 2 retinas-from each group.
as §1

[3] = tested on: optic nerve axons; assay: Grading of optic nerve injury in rat glaucoma model (Experiment 2); type: in vivo
Procedure: GGA was then given twice a week at the same dose until euthanasia. Sustained elevation of intraocular pressure (IOP) was maintained by performing trabecular laser photocoagulation three weeks after the first photocoagulation. […] IOP and body weight were measured once a week. After 5 weeks of IOP elevation, the number of retrogradely labeled RGCs with dextran tetramethylrhodamine (DTMR) was counted (n=53). The grading of optic nerve injury and the counting of cresyl violet-stained cells in the retinal ganglion cell layer (RGCL) was also performed (n=54).
Rats were anesthetized with intramuscular injections of 0.8 ml/kg of the anesthetic cocktail described above. A previously published procedure was modified to produce chronic moderately elevated IOP unilaterally, while the untreated contralateral eye served as the comparative control.40 Animals were injected intracamerally with 10 μl of 35% India ink (Becton Dickinson, Cockeysville, Md.) in 0.01 M PBS after removing a similar volume of aqueous. At the end of the procedure, Tobrex ophthalmic ointment (tobramycin 0.3%; Alcon, Fort Worth, Tex.) was applied topically. Five days after intracameral injection of India ink, a dark band at the limbus was noted due to the aggregation of carbon particles in the trabecular meshwork.38 After anesthesia, approximately 200 laser burns were delivered ab externo to the pigmented trabecular band at laser settings of 200 μm diameter, 200 mW power and 0.2 seconds duration. Three weeks after the first laser treatment, another trabecular laser photocoagulation was performed without further injection of ink.
To examine the effect on RGC axons, optic nerve injury was evaluated with an established method.41 After 5 weeks of IOP elevation, deeply anesthetized animals were perfused with a solution of 4% paraformaldehyde and 1% glutaraldehyde. Optic nerve segments […] behind the globe were dissected, washed, postfixed with 5% glutaraldehyde, dehydrated, and embedded. One μm-thick sections were cut and stained with 1% toluidine blue. Optic nerve cross sections were examined under light microscopy and assessed by three independent masked observers. A graded scale of optic nerve injury ranging from 1 (normal) to 5 (total degeneration) was used. Data obtained from three observers were averaged and presented as mean ±SEM.

Geranylgeranylacetone [GGA]
HSP72 expression (immunoreactive intensity) in the RGCL ([1]; control (normal IOP) retinas vs vehicle-alone controls): increased expression of HSP72; also recorded: Increased immunoreactivity of HSP72 | HSP72 expression (immunoreactive intensity) in the RGCL ([1]; retinas with IOP elevation, 1 week): apparently further increased | immunoreactivity of HSP72 in other retinal layers ([2]; GGA i.p. 7 days): No remarkable change | immunoreactivity of HSP72 in cells in the RGCL (immunohistochemical staining) ([2]; GGA i.p. 7 days vs vehicle-treated): Increased immunoreactivity of HSP72 | levels of HSP72 in RGCs (immunohistochemical staining) ([2]; oral daily dose of GGA for one week, assayed one week after last oral administration): increased levels of HSP72 | effect on optic nerve injury / axonal damage (in words) ([3]; 5 weeks of IOP elevation): inhibited; also recorded: significantly ameliorated | optic nerve injury grade ([3]; 5 weeks of sustained IOP elevation, scale 1 (normal) to 5 (total degeneration)): 1.33±0.05 | optic nerve injury (in words) ([3]; contralateral control eyes): no statistically significant optic nerve injury | optic nerve injury grade ([3]; contralateral control eyes, scale 1 to 5): 1.11±0.02
